# Source: ChEMBL document CHEMBL1145152, “Design, synthesis, and antifolate activity of new analogues of piritrexim and other diaminopyrimidine dihydrofolate reductase inhibitors with omega-carboxyalkoxy or omega-carboxy-1-alkynyl substitution in the side chain” (J Med Chem, 2005)
# How the values were obtained:
# [1] = Concentration causing inhibition of CCRF-CEM human leukemic lymphoblasts growth in 72 hr culture; type: functional, cell-based
# Dihydrofolate reductase [2] = target: T1, Dihydrofolate reductase (Rattus norvegicus, UniProt Q920D2)
# T1 sequence (Q920D2 whole entry): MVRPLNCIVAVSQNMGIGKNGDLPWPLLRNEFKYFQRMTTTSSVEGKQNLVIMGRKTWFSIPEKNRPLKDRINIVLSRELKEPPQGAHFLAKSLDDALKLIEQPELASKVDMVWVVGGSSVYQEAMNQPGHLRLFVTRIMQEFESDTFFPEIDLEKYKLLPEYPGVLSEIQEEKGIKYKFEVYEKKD
# Description: Inhibitory concentration against rat DHFR
# [3] = target: T2, Bifunctional dihydrofolate reductase-thymidylate synthase (Toxoplasma gondii, UniProt Q07422)
# T2 sequence (Q07422 whole entry): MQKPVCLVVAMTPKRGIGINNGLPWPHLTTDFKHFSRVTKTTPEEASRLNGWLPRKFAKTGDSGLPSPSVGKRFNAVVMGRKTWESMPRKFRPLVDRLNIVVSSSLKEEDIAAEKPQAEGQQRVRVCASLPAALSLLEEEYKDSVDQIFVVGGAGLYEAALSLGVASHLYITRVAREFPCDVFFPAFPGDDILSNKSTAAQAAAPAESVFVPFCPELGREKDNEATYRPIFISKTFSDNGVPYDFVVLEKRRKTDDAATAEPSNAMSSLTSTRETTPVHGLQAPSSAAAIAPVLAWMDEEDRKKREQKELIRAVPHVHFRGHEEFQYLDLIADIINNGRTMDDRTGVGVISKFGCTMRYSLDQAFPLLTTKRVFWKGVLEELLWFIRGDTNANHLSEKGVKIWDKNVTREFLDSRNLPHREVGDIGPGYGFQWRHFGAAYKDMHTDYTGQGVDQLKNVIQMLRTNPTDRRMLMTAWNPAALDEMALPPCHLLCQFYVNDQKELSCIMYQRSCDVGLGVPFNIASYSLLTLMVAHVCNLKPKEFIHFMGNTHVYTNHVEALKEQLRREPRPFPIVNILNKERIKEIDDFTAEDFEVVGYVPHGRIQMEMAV
# Description: Inhibitory concentration against Toxoplasma gondii DHFR
# [4] = Selectivity index measured as IC50(Rat)/IC50(Mycobacterium avium)
# Dihydrofolate reductase [5] = target: T3, Dihydrofolate reductase (Pneumocystis carinii, UniProt P16184)
# T3 sequence (P16184 whole entry): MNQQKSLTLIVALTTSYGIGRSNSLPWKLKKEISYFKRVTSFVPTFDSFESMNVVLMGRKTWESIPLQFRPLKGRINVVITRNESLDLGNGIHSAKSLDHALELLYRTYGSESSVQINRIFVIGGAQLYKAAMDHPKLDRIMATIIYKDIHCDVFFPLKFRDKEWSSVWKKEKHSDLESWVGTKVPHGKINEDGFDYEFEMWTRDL
# Description: Inhibitory concentration against Pneumocystis carinii DHFR
# Dihydrofolate reductase [6] = target: T4, Dihydrofolate reductase (Mycobacterium avium, UniProt O30463)
# T4 sequence (O30463 whole entry): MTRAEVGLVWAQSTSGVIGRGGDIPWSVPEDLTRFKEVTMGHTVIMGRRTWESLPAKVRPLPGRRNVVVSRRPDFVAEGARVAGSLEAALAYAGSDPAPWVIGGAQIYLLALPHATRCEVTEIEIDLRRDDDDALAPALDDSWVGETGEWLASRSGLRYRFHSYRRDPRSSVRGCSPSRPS
# Description: Inhibitory concentration against Mycobacterium avium DHFR
# [7] = Concentration causing inhibition of CCRF-CEM human leukemic lymphoblasts growth in a 72 hr culture; type: functional, cell-based
Compound,IC50 [1] [nM],IC50 (Dihydrofolate reductase [2]) [nM],IC50 [3] [nM],Selectivity index [4],IC50 (Dihydrofolate reductase [5]) [nM],IC50 (Dihydrofolate reductase [6]) [nM],IC50 [7] [nM]
COc1ccc(OCCCC(=O)O)c(Cc2cnc3nc(N)nc(N)c3c2C)c1,5300,9.1,2.3,28,0.17,0.32,–
COc1ccc(OC)c(Cc2cnc3nc(N)nc(N)c3c2C)c1 [PIRITREXIM],–,–,–,–,–,–,13
COc1ccc(C#CCCC(=O)O)cc1Cc1cnc2nc(N)nc(N)c2c1C,–,0.32,0.46,5.6,0.097,0.057,–
CCOC(=O)CCCOc1ccc(OC)c(Cc2cnc3nc(N)nc(N)c3c2C)c1,–,4.2,3.4,2.3,6.5,1.8,–
CCOC(=O)CCCCOc1ccc(OC)c(Cc2cnc3nc(N)nc(N)c3c2C)c1,–,14,11,1.5,28,9.4,–
Nc1nc(N)c2nc(CN3c4ccccc4C=Cc4c(C#CCCCC(=O)O)cccc43)cnc2n1,–,1300,21,210,12,6.3,–
COc1ccc(C#CCCCCC(=O)O)cc1Cc1cnc2nc(N)nc(N)c2c1C,–,4,3.2,5.8,1.8,0.69,–
COc1ccc(I)c(Cc2cnc3nc(N)nc(N)c3c2C)c1,–,4,5.8,2.2,3.8,1.8,–
COc1ccc(C#CCCCC(=O)O)c(Cc2cnc3nc(N)nc(N)c3c2C)c1,2800,24,5.8,18,1.2,1.3,–
CCOC(=O)CCCCCOc1ccc(OC)c(Cc2cnc3nc(N)nc(N)c3c2C)c1,–,21,13,1.8,35,12,–
COc1ccc(C#CCCC(=O)O)c(Cc2cnc3nc(N)nc(N)c3c2C)c1,–,55,4.1,96,0.65,0.57,–
COc1ccc(OCCCCCC(=O)O)cc1Cc1cnc2nc(N)nc(N)c2c1C,–,2,2,5.9,1.3,0.35,–
COc1cc(Cc2cnc(N)nc2N)cc(C#CCCC(=O)O)c1Br,–,630,15,1300,71,0.47,–
COc1ccc(I)cc1Cc1cnc2nc(N)nc(N)c2c1C,–,5,4.1,5.4,5.8,0.92,–
Nc1nc(N)c2nc(CN3c4ccccc4C=Cc4c(C#CCCC(=O)O)cccc43)cnc2n1,–,560,77,190,230,2.9,–
COc1ccc(C#CCCCC(=O)O)cc1Cc1cnc2nc(N)nc(N)c2c1C,–,5.7,4.3,5.6,1.4,1,6100
COc1ccc(OCCCCC(=O)O)cc1Cc1cnc2nc(N)nc(N)c2c1C,–,2.2,2.3,7.5,0.51,0.29,–
CCOC(=O)CCCOc1ccc(OC)cc1Cc1cnc2nc(N)nc(N)c2c1C,–,93,10,17,83,5.6,–
COc1ccc(OCc2ccccc2)c(Cc2cnc3nc(N)nc(N)c3c2C)c1,–,170,16,20,96,8.6,–
COc1ccc(OCCCC(=O)O)cc1Cc1cnc2nc(N)nc(N)c2c1C,3700,2.2,1.9,8.5,0.43,0.26,–
